What was measured:
[1] = system: beet armyworm (BAW; Spodoptera exigua: Lepidoptera); assay: 96-well microtiter plate-based high throughput (HTS) diet bioassay on beet armyworm (BAW HTS); assay type: in vivo; settings: for BAW HTS: BAW eggs, 12 μg test compound per well, mortality at 6 d post-treatment, mortality class
Summary of the method: (§1)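 Spodoptera exigua eggs on artificial diet in 96-well plates, surface-treated with 12 μg compound in DMSO-acetone-water; dark, 29° C, mortality at 6 d, six replicates. 128-well trays: second-instar larvae on diet treated at 50 μg/cm^2, 25° C, 14:10 light-dark, six days, mortality averaged over eight wells.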

[2] = system: beet armyworm (BAW; Spodoptera exigua: Lepidoptera); assay: 128-well diet tray assay on beet armyworm (BAW 50); assay type: in vivo; settings: for BAW 50 ug/cm2: 128-well diet tray assay, 50 μg/cm^2 of test compound on diet, second instar BAW larvae, mortality class
Summary of the method: as §1

[3] = 96-well microtiter plate HTS diet assay

## CCOC1C(OC)C(C)OC(ON=Cc2ccc(-c3ncc(-c4ccccc4OC(F)(F)F)cn3)cc2)C1OC (stereo not shown) [Compound 156]
[1]; 96-well HTS diet assay
  BAW HTS: B (either (1) the compound was tested and less than 50 percent mortality was observed or (2) the compound was not tested)
[1]; [3]
  BAW HTS: B (either (1) the compound was tested and less than 50 percent mortality was observed or (2) the compound was not tested)
[2]
  BAW 50 ug/cm2: A (the compound was tested and at least 50 percent mortality was observed)

## CCOC1C(OC)C(C)OC(OC(=O)Nc2ccc(C3=NN(c4ccc(OC(F)(F)C(F)(F)F)cc4)CC3CN(C)C)cc2)C1OC (mixture of isomers) [Compound 180]
[1]; 96-well HTS diet assay
  BAW HTS: B (either (1) the compound was tested and less than 50 percent mortality was observed or (2) the compound was not tested)
[1]; [3]
  BAW HTS: B (either (1) the compound was tested and less than 50 percent mortality was observed or (2) the compound was not tested)
[2]
  BAW 50 ug/cm2: A (the compound was tested and at least 50 percent mortality was observed)

## CCO[C@@H]1[C@@H](OC)[C@H](C)O[C@@H](OC(=O)N(C(=O)CCC(=O)OC)c2ccc(-c3ncn(-c4ccc(OC(F)(F)C(F)(F)F)cc4)n3)cc2)[C@@H]1OC [Compound 259, 4-(((2S,3R,4R,5S,6S)-4-ethoxy-3,5-dimethoxy-6-methyl-tetrahydropyran-2-yloxycarbonyl)-{4-[1-(4-pentafluoroethoxy-phenyl)-1H-[1,2,4]triazol-3-yl]-phenyl}-amino)-4-oxo-butyric acid methyl ester]
[1]; [3]
  BAW HTS: B (either (1) the compound was tested and less than 50 percent mortality was observed or (2) the compound was not tested)
[1]; Spodoptera exigua, 144 h, read-out: BAW HTS
  pest or weed control at 12 µg/well, 12 µg/well: < 50%
[2]
  BAW 50 ug/cm2: A (the compound was tested and at least 50 percent mortality was observed)
[2]; Spodoptera exigua, 144 h, read-out: BAW 50 ug/cm2
  pest or weed control at 50 µg/cm2, 50 µg/cm2: > 50%

## COC1C(C)OC(ON=Cc2ccc(-c3cn(-c4ccc(Br)cc4)cn3)cc2)C(OC)C1OC (stereo not shown) [Compound 45]
[1]; 96-well HTS diet bioassay
  BAW HTS: B (either (1) the compound was tested and less than 50 percent mortality was observed or (2) the compound was not tested)
[1]; [3]
  BAW HTS: B (either (1) the compound was tested and less than 50 percent mortality was observed or (2) the compound was not tested)
[2]
  BAW 50 ug/cm2: A (the compound was tested and at least 50 percent mortality was observed)

## COC1C(C)OC(ON=Cc2ccc(-c3cc(-c4ccc(OC(F)(F)F)cc4)ccn3)cc2)C(OC)C1OC (stereo not shown) [Compound 133]
[1]; 96-well HTS diet assay
  BAW HTS: B (either (1) the compound was tested and less than 50 percent mortality was observed or (2) the compound was not tested)
[1]; [3]
  BAW HTS: B (either (1) the compound was tested and less than 50 percent mortality was observed or (2) the compound was not tested)
[2]
  BAW 50 ug/cm2: A (the compound was tested and at least 50 percent mortality was observed)

## COC1C(C)OC(ON=Cc2ccc(-c3cn(-c4ccc(C)cc4)cn3)cc2)C(OC)C1OC (stereo not shown) [Compound 41]
[1]; 96-well HTS diet bioassay
  BAW HTS: B (either (1) the compound was tested and less than 50 percent mortality was observed or (2) the compound was not tested)
[1]; [3]
  BAW HTS: B (either (1) the compound was tested and less than 50 percent mortality was observed or (2) the compound was not tested)
[2]
  BAW 50 ug/cm2: A (the compound was tested and at least 50 percent mortality was observed)

## CO[C@@H]1[C@@H](OC)[C@H](C)O[C@@H](OC(=O)Nc2ccc(-c3cc(C(F)(F)C(F)(F)C(F)(F)F)nc(-c4ccc(C(F)(F)F)cc4)n3)cc2)[C@@H]1OC [Compound 233]
[1]; 96-well HTS diet assay
  BAW HTS: B (either (1) the compound was tested and less than 50 percent mortality was observed or (2) the compound was not tested)
[1]; [3]
  BAW HTS: B (either (1) the compound was tested and less than 50 percent mortality was observed or (2) the compound was not tested)
[2]
  BAW 50 ug/cm2: A (the compound was tested and at least 50 percent mortality was observed)

## CCOC1C(OC)C(C)OC(ON=Cc2ccc(C3=NC(c4ccc(OC(F)(F)F)cc4)CO3)cc2)C1OC (stereo not shown) [Compound 68]
[1]; 96-well HTS diet bioassay
  BAW HTS: B (either (1) the compound was tested and less than 50 percent mortality was observed or (2) the compound was not tested)
[1]; [3]
  BAW HTS: B (either (1) the compound was tested and less than 50 percent mortality was observed or (2) the compound was not tested)
[2]
  BAW 50 ug/cm2: A (the compound was tested and at least 50 percent mortality was observed)
